# Measurements as given in patent publication US11912678B2, “LRRK2 inhibiting compounds and use thereof for treating neurodegenerative diseases” (CONSEJO SUPERIOR DE INVESTIGACIONES CIENTÍFICAS, priority 2018, dated 2024).
# Experiments:
# in vitro = conditions: PAMPA; for Pe (10−6 cm s−1) / Papp at 2.5 h: pig, pH 7.4; for Pe (10−6 cm s−1): 2.5 h
# Source text: The above-referenced commercial compounds, phosphate buffer at pH=7.4 (PBS), Ethanol and dodecane were obtained from the commercial houses Sigma, Acros organics, Merck, Aldrich and Fluka, respectively. […] To filter the samples, PVDF membrane filters were used (30 mm diameter, 0.45 μm pore size) from the company Symta. The equipment used to measure UV absorbance in 96-well plates was a Thermoscientific Multiskan spectrum.
# Ten reference compounds were selected, whose blood-brain barrier passage is known, in order to validate the experiment. […] The solutions were filtered. Next, 180 μL of a PBS/EtOH (70/30) solution were added to each well of the acceptor plate. The donor plate was impregnated with 4 μL of a pig brain lipid solution dissolved in dodecane (20 mg mL^−1). After 5 minutes, 180 μL of solution of each compound were added on this plate. Of the compounds whose penetration in the central nervous system is being evaluated, between 1-2 mg were taken and dissolved in 1,500 μL of EtOH and 3,500 μL of PBS phosphate buffer (pH=7.4), filtered and added to the 96-well donor plate. Next, the donor plate was placed on top of the acceptor plate forming a kind of “sandwich” and left to incubate for 2 h and 30 min at 25° C. The passive transport compounds pass from the donor plate through the pig brain lipid to the acceptor plate. After 2 h and 30 min, the donor plate is carefully removed. The concentration and absorbance of both the commercial compounds and the synthesised derivatives that were evaluated in the acceptor and donor plates were determined using a UV absorbance reader. Each sample was analysed at 2 to 5 wavelengths, in at least three wells and in two independent experiments. […] Ten reference commercial compounds whose penetration in the central nervous system is known were used in each experiment in order to validate the method.
# LRRK2 = LRRK2 (Homo sapiens (Human), UniProt Q5S007); test: Inhibition of LRRK2 (Adapta kinase assay); type: biochemical; conditions: Adapta method, 60 min kinase reaction
# Experimental: (§1) The compounds were evaluated in LRRK2 and in the mutated form LRRK2 G2019S. This mutation is more frequent in the familial forms of Parkinson's Disease and has a significant increase in kinase activity. The experimental determination of the inhibition of both enzymes was carried out using the Adapta® method, which is an evaluation method of fluorescent kinase activity that determines ADP in a highly sensitive manner. The methodology can be divided into two stages: kinase reaction and ADP determination. In the first stage, all the components for the kinase reaction are added to the well and incubated for 60 min. After the reaction, the ADP detection solution which contains a Europium-labeled anti-ADP antibody (Alexa Fluor® 647 labeled ADP tracer) and EDTA, to stop the kinase reaction, are added to the reaction well. The ADP formed in the kinase reaction without inhibitor will displace the Alexa Fluor® 647 labeled ADP tracer of the antibody, resulting in the TR-FRET signal decrease.
# (§2) The assay is performed in 384-well plates. Adding 100 nL of the solution with the compound to be evaluated in 1% DMSO, 2.4 μL of HEPES solution, 2.5 μL of ATP solution, […] of substrate solution. The 10 μl of the kinase reaction contain: […] LRRK2 and 200 μM ERM (LRRKtide) in 25 mM Tris/7.5 mM HEPES pH 8.2, 0.005% BRIJ-35, 5 mM MgCl2, 0.5 mM EGTA, 0.01% NaN3 or 3-12 ng LRRK2 G2019S and 200 μM ERM (LRRKtide) in 25 mM Tris/7.5 mM HEPES pH 8.2, 0.005% BRIJ-35, 5 mM MgCl2, 0.5 mM EGTA, 0.01% NaN3. The plate is stirred for 30 s on a stirring plate and centrifuged for 1 min in a centrifuge at 1,000×g. The reaction is incubated at room temperature for 60 min. After this time period, 5 μL of the detection mixture is added, the plate is stirred for 30 s on a stirring plate and centrifuged for 1 min at 1,000×g. Fluorescence is determined in a plate reader and the data are analysed.
# LRRK2 G2019S = LRRK2 G2019S (Homo sapiens (Human), UniProt Q5S007, G2019S); test: Inhibition of LRRK2 G2019S (Adapta kinase assay); type: biochemical; conditions: Adapta method, 60 min kinase reaction
# Experimental: as §1, §2
# [1] = tested on: human neuronal line SH-SY5Y; test: Neuroprotection against okadaic acid-induced tau hyperphosphorylation (MTT); type: cell-based; conditions: compounds 1, 5 and 10 μM pre-incubated 1 hour, OA 30 nM 24 hours
# Experimental: The neuroprotective potential of the compounds was evaluated in an okadaic acid (OA)-induced neurodegeneration cell model. OA is an inhibitor of phosphatase 1 and 2 and is normally used to induce tau hyperphosphorylation in different cell lines. In this case, the human neuronal line SH-SY5Y is used. The cells are cultured in DMEM medium supplemented with 10% FBS and 1% penicillin/streptomycin at 37° C. and in an incubator with 5% CO2. The SH-SY5Y cells are sown on a 96-well plate at a density of 60,000 cells per well for 48 hours. After this time period, the cells are pre-incubated with the compounds to be studied at a concentration of 1, 5 and 10 μM for 1 hour. After that time period, OA is added at a concentration of 30 nM, letting the plate incubate for a further 24 hours. Next, the cells were incubated with an MTT solution at 0.5 mg·mL^−1 for at least 4 hours at 37° C. and 5% CO2. Next, the culture medium is removed and the formazan crystals joined to the base of the plate are dissolved with 200 μL of DMSO. Lastly, UV absorbance was measured at 595 nm in a plate reader (Varioskan Flash Microplate reader, Thermo Scientific).
# Sequence of LRRK2 G2019S (Q5S007 whole entry G2019S): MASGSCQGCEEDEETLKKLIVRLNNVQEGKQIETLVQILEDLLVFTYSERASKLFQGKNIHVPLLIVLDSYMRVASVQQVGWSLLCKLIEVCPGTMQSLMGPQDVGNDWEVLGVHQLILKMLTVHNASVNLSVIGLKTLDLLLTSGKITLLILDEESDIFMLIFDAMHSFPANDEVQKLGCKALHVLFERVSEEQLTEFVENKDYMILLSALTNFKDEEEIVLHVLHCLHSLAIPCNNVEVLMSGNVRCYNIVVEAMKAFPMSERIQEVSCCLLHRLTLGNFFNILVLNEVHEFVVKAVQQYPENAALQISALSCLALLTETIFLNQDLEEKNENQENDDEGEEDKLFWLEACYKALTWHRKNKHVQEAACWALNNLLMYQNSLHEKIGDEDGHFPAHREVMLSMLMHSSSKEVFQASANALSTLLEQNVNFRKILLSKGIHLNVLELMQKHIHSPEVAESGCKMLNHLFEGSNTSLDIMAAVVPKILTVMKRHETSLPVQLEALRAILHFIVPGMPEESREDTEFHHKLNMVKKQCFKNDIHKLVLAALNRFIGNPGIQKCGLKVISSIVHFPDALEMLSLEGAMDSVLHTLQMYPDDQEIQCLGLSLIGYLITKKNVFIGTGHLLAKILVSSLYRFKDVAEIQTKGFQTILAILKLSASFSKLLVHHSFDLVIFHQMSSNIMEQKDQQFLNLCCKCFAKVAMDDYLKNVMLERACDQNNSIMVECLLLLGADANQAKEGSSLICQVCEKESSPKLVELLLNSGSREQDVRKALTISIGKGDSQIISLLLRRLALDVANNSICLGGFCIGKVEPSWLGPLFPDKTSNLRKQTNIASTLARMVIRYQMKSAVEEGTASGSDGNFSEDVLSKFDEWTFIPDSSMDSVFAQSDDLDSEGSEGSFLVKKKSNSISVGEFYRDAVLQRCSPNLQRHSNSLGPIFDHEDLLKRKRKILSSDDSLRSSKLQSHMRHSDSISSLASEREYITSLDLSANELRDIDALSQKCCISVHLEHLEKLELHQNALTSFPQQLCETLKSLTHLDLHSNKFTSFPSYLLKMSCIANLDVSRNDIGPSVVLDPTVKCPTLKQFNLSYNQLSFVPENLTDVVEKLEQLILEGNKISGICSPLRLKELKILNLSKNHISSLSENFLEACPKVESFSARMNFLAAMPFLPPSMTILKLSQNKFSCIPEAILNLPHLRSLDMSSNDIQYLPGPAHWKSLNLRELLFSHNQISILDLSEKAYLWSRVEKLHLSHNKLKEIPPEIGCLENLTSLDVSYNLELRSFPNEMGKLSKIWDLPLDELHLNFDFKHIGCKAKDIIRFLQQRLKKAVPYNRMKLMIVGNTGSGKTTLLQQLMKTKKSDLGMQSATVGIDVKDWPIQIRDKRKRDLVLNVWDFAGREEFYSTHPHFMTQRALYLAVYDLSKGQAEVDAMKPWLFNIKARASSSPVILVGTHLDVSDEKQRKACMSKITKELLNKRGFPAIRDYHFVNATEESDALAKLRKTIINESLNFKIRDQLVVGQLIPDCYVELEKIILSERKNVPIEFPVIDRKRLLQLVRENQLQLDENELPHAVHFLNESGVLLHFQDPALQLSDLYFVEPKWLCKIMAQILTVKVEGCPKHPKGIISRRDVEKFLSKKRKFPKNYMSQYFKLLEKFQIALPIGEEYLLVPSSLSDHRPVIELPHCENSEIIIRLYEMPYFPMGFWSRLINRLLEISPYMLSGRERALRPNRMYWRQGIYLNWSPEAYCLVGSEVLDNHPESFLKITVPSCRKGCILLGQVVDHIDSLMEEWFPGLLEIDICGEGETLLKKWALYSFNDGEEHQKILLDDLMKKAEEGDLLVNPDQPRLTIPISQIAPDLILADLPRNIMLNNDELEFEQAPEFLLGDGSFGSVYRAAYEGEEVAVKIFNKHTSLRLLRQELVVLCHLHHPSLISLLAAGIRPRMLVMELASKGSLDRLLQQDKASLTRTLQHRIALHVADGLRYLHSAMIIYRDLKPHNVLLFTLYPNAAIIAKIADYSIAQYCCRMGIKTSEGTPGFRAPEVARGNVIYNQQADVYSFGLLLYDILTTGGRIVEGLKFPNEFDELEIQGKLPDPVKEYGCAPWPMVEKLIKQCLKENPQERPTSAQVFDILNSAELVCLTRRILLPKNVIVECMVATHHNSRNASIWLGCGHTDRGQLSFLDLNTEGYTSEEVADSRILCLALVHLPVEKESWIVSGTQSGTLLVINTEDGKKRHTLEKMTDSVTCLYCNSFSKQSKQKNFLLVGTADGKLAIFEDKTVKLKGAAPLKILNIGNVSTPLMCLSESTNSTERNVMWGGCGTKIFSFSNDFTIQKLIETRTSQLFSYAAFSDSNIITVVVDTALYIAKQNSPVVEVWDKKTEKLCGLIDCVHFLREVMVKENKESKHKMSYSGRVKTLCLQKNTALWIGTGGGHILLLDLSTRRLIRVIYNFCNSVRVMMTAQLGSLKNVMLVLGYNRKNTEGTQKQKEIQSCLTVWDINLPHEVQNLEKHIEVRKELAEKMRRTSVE
# Sequence of LRRK2 (Q5S007 whole entry): as the sequence (Q5S007 whole entry G2019S) above, with S2019G counted along it
Structure (SMILES),Pe (10−6 cm s−1) (in vitro),IC50 (LRRK2) [nM],IC50 (LRRK2 G2019S) [nM],Prediction of penetration in the central nervous system (CNS) (in vitro),Papp at 2.5 h (in vitro) [×10⁻⁶ cm/s],Neuroprotection against okadaic acid damage / tau hyperphosphorylation [1],Blood-brain barrier penetration by passive diffusion (in vitro)
"CN1C(C(=O)Nc2ccccn2)=C(O)c2ccccc2S1(=O)=O [Piroxicam, reference compound]",0.6 ± 0.2 10−6 cm s−1,–,–,–,–,–,–
"O=C(Nc1nc2ccccc2s1)c1ccc(N2CCOCC2)cc1 [Compound 1, N-(benzothiazole-2-yl)-4-morpholinobenzamide]",13.4 ± 2.4 10−6 cm s−1,696,360,–,–,prevents the damage caused by the okadaic acid,capable of penetrating the blood-brain barrier by passive diffusion
"Cc1ccc2nc(NC(=O)c3ccc(N4CCOCC4)cc3)sc2c1 [Compound 4, N-(6-methylbenzothiazole-2-yl)-4-morpholinobenzamide]",19.0 ± 2.6 10−6 cm s−1,523,332,–,–,prevents the damage caused by the okadaic acid,capable of penetrating the blood-brain barrier by passive diffusion
"CCCOc1ccc2nc(NC(=O)c3ccc(N4CCOCC4)cc3)sc2c1 [Compound 9, N-(6-propoxybenzothiazole-2-yl)-4-morpholinobenzamide]",–,4000,1190,–,4.28 ± 3.45,prevents the damage caused by the okadaic acid,–
"CN(C)CCCN1c2ccccc2Sc2ccccc21 [Promazine, reference compound]",9.8 ± 0.5 10−6 cm s−1,–,–,–,–,–,–
"CCOc1ccc2nc(NC(=O)c3ccc(N4CCOCC4)cc3)sc2c1 [Compound 7, N-(6-ethoxybenzothiazole-2-yl)-4-morpholinobenzamide]",–,308,158,–,–,prevents the damage caused by the okadaic acid,–
"CC(C)c1ccc2nc(NC(=O)c3ccc(N4CCOCC4)cc3)sc2c1 [Compound 10, N-(6-isopropylbenzothiazole-2-yl)-4-morpholinobenzamide]",–,1950,1170,–,4.27 ± 2.7,prevents the damage caused by the okadaic acid,–

# Continued, in another order:
Pe (10−6 cm s−1) (in vitro),IC50 (LRRK2) [nM],IC50 (LRRK2 G2019S) [nM],Prediction of penetration in the central nervous system (CNS) (in vitro),Papp at 2.5 h (in vitro) [×10⁻⁶ cm/s],Structure (SMILES),Neuroprotection against okadaic acid damage / tau hyperphosphorylation [1],Blood-brain barrier penetration by passive diffusion (in vitro)
–,368,108,–,–,"COc1ccc2nc(NC(=O)c3ccc(N4CCOCC4)cc3)sc2c1 [Compound 2, N-(6-methoxybenzothiazole-2-yl)-4-morpholinobenzamide]",prevents the damage caused by the okadaic acid,–
–,1060,293,–,–,"O=C(Nc1nc2ccc(C(F)(F)F)cc2s1)c1ccc(N2CCOCC2)cc1 [Compound 3, N-(6-trifluoromethylbenzothiazole-2-yl)-4-morpholinobenzamide]",prevents the damage caused by the okadaic acid,–
–,777,–,CNS+/−,3.42 ± 1.26,"O=C(Nc1nc2ccc(Cl)cc2s1)c1ccc(N2CCOCC2)cc1 [Compound 5, N-(6-chlorobenzothiazole-2-yl)-4-morpholinobenzamide]",prevents the damage caused by the okadaic acid,–
–,474,1380,–,–,"O=C(Nc1nc2ccc(Br)cc2s1)c1ccc(N2CCOCC2)cc1 [Compound 8, N-(6-bromobenzothiazole-2-yl)-4-morpholinobenzamide]",prevents the damage caused by the okadaic acid,–
5.1 ± 0.1 10−6 cm s−1,190,426,–,–,"O=C(Nc1nc2ccc(F)cc2s1)c1ccc(N2CCOCC2)cc1 [Compound 6, N-(6-fluorobenzothiazole-2-yl)-4-morpholinobenzamide]",prevents the damage caused by the okadaic acid,capable of penetrating the blood-brain barrier by passive diffusion
